Assay [1] relates to gemcitabine-induced thrombocytopenia. The assay is described as follows: Effects of plinabulin on hematology parameters (platelet counts) following gemcitabine administration in the rat. Format: in vivo. On the procedure:
The effects of plinabulin on the hematology parameters following changes induced by gemcitabine administration in the rat were evaluated. The vehicle was prepared using 7.11% Tween 80 (v/v): 25.5% Propylene glycol (v/v): 67.4% D5W (v/v). D5W is 5% dextrose in water for injection.
Plinabulin or Pegfilgrastim were first dissolved in the Tween 80-PG mixture and then diluted with D5W. Test item was dissolved in Tween 80-PG mixture on the day before and stored at RF. D5W was added on the day of dosing to complete the formulation.
Animals were randomized based on body weight and/or absolute neutrophil counts and assigned to groups. Before the initiation of dosing, any assigned animals considered unsuitable for use in the study were replaced by alternate animals obtained from the same shipment and maintained under the same environmental conditions. Each animal was uniquely identified using indelible ink. A minimum acclimation period of 5 days was allowed between animal receipt and the start of treatment in order to accustom the animals to the laboratory environment.
For the lab evaluation, the animal blood was collected by jugular venipuncture. Samples (0.3 mL) were collected in EDTA tubes. Additional blood samples may be obtained (e.g., due to clotting of non-serum samples) if permissible sampling frequency and blood volume are not exceeded. After collection, samples were transferred to Clinical Laboratories for hematology analysis using the Advia and results entered into the Provantis® system.
Administration of Inducing Agent
1. Gemcitabine; Groups 1, 3 and 4
Dosing regimen: Single dosing on Day 1
Intravenously (IV bolus) over ˜1 minute at a dose volume of 5 mL/kg.
Group 2 received Vehicle.
2. Pegfilgrastim; Groups 2 and 4
Dosing regimen: Single dosing on Day 2, 24 hours after Gemcitabine
Route of administration: Subcutaneous (SC) injection.
Dose volume: 10 mL/kg, based on the most recent body weight measurement
Dosing regimen: Single dosing on Day 1, 1 hr after Gemcitabine
Route of administration: Intra-peritoneal (IP) injection.
Group 1 received Vehicle.
The dosing time points for groups 1 to 4 include days −3, 1, 2, 3, 4, 5, 6, 7, 8, 9 and 10. Additional blood samples may be obtained (e.g., due to clotting of non-serum samples) if permissible sampling frequency and blood volume are not exceeded. After collection, samples will be transferred to Clinical Laboratories for hematology analysis using the Advia and results entered into the Provantis® system.

The test system of assay [2] is thrombocytopenia in patients receiving docetaxel. The assay is described as follows: Phase 2/3 randomized study of plinabulin versus pegfilgrastim in patients with solid tumors receiving docetaxel myelosuppressive chemotherapy (platelet count, thrombocytopenia). The note with it: patients on docetaxel 75 mg/m^2, preliminary; for change of platelet count (percent) from day 1 to day 15: pegfilgrastim 6 mg vs plinabulin 20 mg/m^2, FIG. 2; for development of thrombocytopenia (percentage of patients at each grade): plinabulin 20 mg/m^2 vs pegfilgrastim 6 mg, FIG. 5. The format is in vivo, human. On the procedure:
The effects of plinabulin on the thrombocytopenia is studied in comparison to pegfilgrastim. A phase 2/3, multicenter, randomized, double blind study is performed with plinabulin versus pegfilgrastim in patients with solid tumors receiving docetaxel myelosuppressive chemotherapy is evaluated. The patients are on study for approximately 5 months, including screening, on treatment, and follow-up. Study design: This is a multicenter, randomized study with an open label phase 2 portion and a double blind phase 3 portion. Approximately 190 patients are enrolled in this study. All patients receive docetaxel at a dose of 75 mg/m^2. In Phase 2, only patients with advanced or metastatic NSCLC after failing platinum-based therapy are enrolled. In Phase 3, patients with one of the following diagnosis are enrolled: advanced or metastatic breast cancer, who have failed<5 prior lines of chemotherapy; advanced or metastatic NSCLC who have previously received platinum-based therapy and have either disease progression, are intolerant of platinum-based therapy or, in the opinion of the investigator, would benefit from docetaxel chemotherapy; or hormone refractory (androgen independent) metastatic prostate cancer. The eligibility of all patients will be determined during a 28-day screening period. Phase 2 (Open Label): Approximately 40 patients with advanced or metastatic NSCLC are enrolled. Patients are randomly assigned with approximately 10 patients enrolled in each arm, with the arm designation and planned intervention as follows: Arm 1: Docetaxel (75 mg/m^2)+pegfilgrastim (6 mg) Arm 2: Docetaxel (75 mg/m^2)+plinabulin (20 mg/m^2) Arm 3: Docetaxel (75 mg/m^2)+plinabulin (10 mg/m^2) Arm 4: Docetaxel (75 mg/m^2)+plinabulin (5 mg/m^2) Once the study is temporarily closed to enrollment in phase 2, a PK/PD analysis is performed to determine the RP3D. The PK/PD analysis is done by an independent party at the time 40 patients in Phase 2 have completed at least Cycle 1. Treatments Administered: Both Phase 2 and Phase 3, Cycles 1 to 4, consist of docetaxel 75 mg/m^2 administered by intravenous (IV) infusion on Day 1 over 60 minutes (±5 minutes) every 21 days. In the phase 2 portion, on Day 1 of each cycle, 1.5 hours (±10 minutes) after the start time of docetaxel infusion (i.e., approximately 30 minutes after the end of docetaxel infusion), patients assigned to a plinabulin arm (arms 2-4) get a single intravenous infusion of plinabulin at their assigned dose over 30 minutes (±5 minutes). Thus, the wait time between end of docetaxel infusion and start of the plinabulin infusion is approximately 30 minutes. On Day 2 of each cycle, ≥24 hours after completing chemotherapy, patients assigned to pegfilgrastim (arm 1) receive a single dose of pegfilgrastim (6 mg) (subcutaneous injection). Laboratory test results (hematology and serum chemistry) are collected via a central laboratory. Safety laboratory tests are required prior to treatment on Day 1 of each cycle and can be collected by a local laboratory; however, all other scheduled blood samples as per the schedule assessments and procedure table must also be obtained for central laboratory assessment. Urinalysis is performed at screening only. CD34+ counts are established through a fluorescence-activated cell sorting (FACS) method. Duration of Treatment: Patients received treatment with study drug for up to 4 cycles in this study, a treatment cycle is 21 days; thereafter, patients may continue receiving docetaxel and pegfilgrastim at the Investigator's discretion. After completion of 4 cycles, patients completed a safety follow-up visit 30 days (±2 days) after the last dose of study drug. If, in the opinion of the investigator, the patient would benefit from more than 4 cycles of docetaxel and open label pegfilgrastim, then the fifth cycle would not start until completion of the safety follow-up visit (in this instance, the safety follow-up visit will be Cycle 4 Day 21).

From US11786523B2, “Composition and method for reducing thrombocytopenia” (BEYONDSPRING PHARMACEUTICALS, INC., priority 2018, dated 2023) come the findings set out here.

Where only a bound is given, the exact number is not on record here.

Regarding `CC(C)(C)c1[nH]cnc1/C=c1\[nH]c(=O)/c(=C/c2ccccc2)[nH]c1=O` [plinabulin, Plinabulin], the “platelet counts versus gemcitabine alone group” value in assay [1] (Days 8 and 9, gemcitabine and plinabulin group) was “statistically greater”. Moreover, the “effect on thrombocytopenia observed with gemcitabine alone” value in assay [1] (gemcitabine 100 mg/kg IV + plinabulin 7.5 mg/kg IP, FIG. 1) was “reduced the thrombocytopenia observed with gemcitabine alone”. Moreover, in assay [1] (gemcitabine 100 mg/kg IV Day 1 + plinabulin 7.5 mg/kg IP 1 hr after, all sampling days, FIG. 1), the platelet counts is > 500 ×10^3 cells/μL. For the same molecule, in assay [1] (gemcitabine and plinabulin group), the “recovery from gemcitabine-induced thrombocytopenia versus gemcitabine alone” value is on record as “more rapid”. The “percentage of patients with greater than 30% platelet decrease from baseline, compared with pegfilgrastim group” value in assay [2] (cycles 1-4, plinabulin groups, FIG. 3) is “lower percentages”. Further, in assay [2], the “change of platelet count (percent) from day 1 to day 15” value was “more effective in maintaining the platelet count” and the “development of thrombocytopenia (percentage of patients at each grade)” value is reported as “did not develop thrombocytopenia”. In addition, the “incidence of developing thrombocytopenia (percentage of patients at each grade)” value in assay [2] (plinabulin 5, 10 and 20 mg/m^2 vs pegfilgrastim 6 mg, FIG. 4) is on record as “lower incidences of developing thrombocytopenia than the pegfilgrastim group”.

B1: pegfilgrastim (protein, chains of the INN, looked up)
chain: TPLGPASSLPQSFLLKCLEQVRKIQGDGAALQEKLCATYKLCHPEELVLLGHSLGIPWAPLSSCPSQALQLAGCLSQLHSGLFLYQGLLQALEGISPELGPTLDTLQLDVADFATTIWQQMEELGMAPALQPTQGAMPAFASAFQRRAGGVLVASHLQSFLEVSYRVLRHLAQP
modifications: PEG
notes: granulocyte-colony stimulating factor (G-CSF) drug used as comparator
Regarding B1, in assay [2] (cycles 1-4, FIG. 3), the “percentage of patients with greater than 30% platelet decrease from baseline” value was roughly 85%. Further, in assay [2], the “change of platelet count (percent) from day 1 to day 15” value is “greater than the plinabulin group” and the “development of thrombocytopenia (percentage of patients at each grade)” value was “some patients in the pegfilgrastim group developed thrombocytopenia”.
